How the values were obtained:
[1] = system: diffuse axonal injury in rats (impact acceleration injury); assay: Impact acceleration injury model in rats: APP / active caspase-3 positive axons by immunohistochemistry; format: in vivo, Sprague-Dawley rats; details: for APP positive axons: 30 days post injury, p<0.05 versus 148 in unsupplemented animals (sham 6)
From the text: (§1) Method. The impact acceleration injury model in rats described in Marmarou et al., J Neurosurg. 80:291-300 (1994), incorporated herein by reference, was used for the study. Four groups of ten (n=40) of adult male Sprague-Dawley rats were subjected to an impact acceleration injury resulting in reproducible severe traumatic brain injury. Rats weighing between 350 and 400 g received induction anesthesia and subsequently maintained on inhaled anesthetic using a modified medical anesthesia machine. The animals were shaved and prepared in sterile fashion for surgery, followed by subcutaneous injection of local anesthetic into the planned incision site. A 3 cm midline incision in the scalp was made, periosteal membranes separated, exposing bregma and lambda. A metal disk 10 mm in diameter and 3 mm thick was attached to the skull with cyanoacrylate and centered between bregma and lambda. The animal was placed prone on a foam bed with the metal disk directly under a plexiglas tube. A 450 g brass weight was dropped through the tube from a height of 2 meters striking the disk. The animal was then ventilated on 100% O2 while the skull inspected and the incision repaired. When the animal recovered spontaneous respirations, anesthesia was discontinued and the animal returned to its cage for postoperative observation (Marmarou et al., supra). All procedures involving live animals were approved by the Institutional Animal Care and Use Committee of West Virginia University, and were performed according to the principles of the Guide for the Care and Use of Laboratory Animals, published by the Institute of Laboratory Resources, National Research Council (NIH publication 85-23-2985).
(§2) DHA supplementation and serum level monitoring. The four groups received dietary supplementation with DHA (Martek, Columbia, Md.). Two of the four groups received dietary supplementation DHA daily in the following amounts: Group 1, 10 mg/kg/day; Group 2, 40 mg/kg/day. Groups 3 served as an unsupplemented control, and Group 4 underwent sham injury and received no supplementation. Each group received rat chow ad lib and were housed in a small animal vivarium under veterinary staff supervision. Fatty acid blood testing was performed prior to the injury and at the end of the 30 days of DHA supplementation by analyzing the isolated serum phospholipids (including DHA, EPA and Arachidonic acid) from 50 microliter blood samples using a previously described method (Holub and Skeaff, Methods Enzymol. 141:234-44 (1987); Nutrasource Diagnostics, University of Guelph, Ontario, Canada).
Tissue Preparation and Immunohistochemical Labeling. Following 30 day post-injury, surviving animals were euthanized with a lethal dose injection of 0.5 ml Ketamine and 0.5 ml Xylazine. […]

[2] = Serum phospholipid fatty acid levels after DHA supplementation following brain trauma; format: in vivo, Sprague-Dawley rats; details: for increased levels of serum DHA over initial levels: dietary, serum phospholipids
Experimental: as §2

[3] = Tolerability of daily oral supplementation in the impact acceleration model; format: in vivo; details: 10 or 40 mg/kg/day
From the text: as §1, with “All procedures involving live animals were approved by the Institutional Animal Care and Use Committee of West Virginia University, and were performed according to the principles of the Guide for the Care and Use of Laboratory Animals, published by the Institute of Laboratory Resources, National Research Council (NIH publication 85-23-2985).” left out

CC/C=C\C/C=C\C/C=C\C/C=C\C/C=C\C/C=C\CCC(=O)O [DHA, (all-Z)-4,7,10,13,16,19-docosahexaenoic acid]
APP positive axons ([1]; 10 mg/kg/day DHA, corticospinal tract and medial lemnisci): 26 axons per mm^2 | APP positive axons ([1]; 40 mg/kg/day DHA, corticospinal tract and medial lemnisci): 20 axons per mm^2 | APP labeling of axons, qualitative ([1]; 10 or 40 mg/kg/day DHA, corticospinal tract and medial lemnisci): only rare APP positive axons, similar to sham injured animals | active caspase-3 positive axons ([1]; 10 or 40 mg/kg/day oral, 30 days following injury, data not shown): significant decrease | decrease in AA:EPA ratio, a marker of inflammation ([2]; 10 mg/kg/day DHA, 30 days after brain trauma, serum): 72% | increased levels of serum DHA over initial levels ([2]; 10 mg/kg/day DHA, 30 days after brain trauma): 123% | increased levels of serum DHA over initial levels ([2]; 40 mg/kg/day DHA, 30 days after brain trauma): 176% | total EPA and DHA in serum phospholipids compared to the sham animals ([2]; end of supplementation period, 10 and 40 mg/kg/day): dose-response effect in the increase | serum arachidonic acid levels ([2]; supplemented animals, end of supplementation period): non-significant increase | observed untoward effects of daily oral supplementation [3]: without any observed untoward effects

— patent US20110086914A1, “Methods for Treating Traumatic Brain Injury” (priority 2009, published 2011)
